{"source": "patent US20070128217A1", "about": "(priority 2003, published 2007)", "key": {"[1]": {"tested_on": "rabbit serum obtained by immunizing a rabbit with the SARS-CoV strain Frankfurt 1", "format": "binding", "parameters": "Binding of a rabbit serum to linear peptides / Binding of a rabbit serum to looped peptides / Rabbit serum linear peptides / Rabbit serum looped peptides / Binding of a rabbit serum to linear peptides of protein N of SARS-CoV Urbani (Rabbit serum linear peptides) / Binding of a rabbit serum to looped/cyclic peptides of protein N of SARS-CoV Urbani (Rabbit serum looped peptides): unit not given here"}, "[2]": {"tested_on": "antibodies in sera from SARS patients (sera 1a, 1b, 2, 6, 37, 62, London, SARS-yellow, SARS-green)", "format": "binding, human", "parameters": "Binding of serum 6 to linear peptides of protein X1 of SARS-CoV Urbani / Binding of serum 37 to linear peptides of protein X1 of SARS-CoV Urbani / Binding of serum 6 to looped/cyclic peptide (PEPSCAN-ELISA) / Binding of serum 37 to looped/cyclic peptide (PEPSCAN-ELISA) / Binding of serum 37 to looped/cyclic peptides of protein X1 of SARS-CoV Urbani / Binding of serum 6 to linear peptides of protein X2 / Binding of serum 37 to linear peptides of protein X2 / Binding of serum 37 to looped/cyclic peptides of protein X2 of SARS-CoV Urbani / Binding of serum 6 to linear peptides of protein M of SARS-CoV Urbani / Binding of serum 37 to linear peptides of protein M of SARS-CoV Urbani / Binding of serum 6 to looped/cyclic peptides of protein M of SARS-CoV Urbani / Binding of serum 37 to looped/cyclic peptides of protein M of SARS-CoV Urbani / Binding of serum 6 to linear peptides of protein X3 of SARS-CoV Urbani / Binding of serum 37 to linear peptides of protein X3 of SARS-CoV Urbani / Binding of serum 37 to looped/cyclic peptides of protein X3 of SARS-CoV Urbani / Binding of serum 6 to linear peptides of protein X4 of SARS-CoV Urbani / Binding of serum 37 to linear peptides of protein X4 of SARS-CoV Urbani / Binding of serum 37 to looped/cyclic peptides of protein X4 of SARS-CoV Urbani / Binding of serum 6 to linear peptides of protein X5 of SARS-CoV Urbani / Binding of serum 37 to linear peptides of protein X5 of SARS-CoV Urbani / Binding of serum 37 to looped/cyclic peptides of protein X5 of SARS-CoV Urbani / Binding of serum 6 to linear peptides of protein N of SARS-CoV Urbani / Binding of serum 37 to linear peptides of protein N of SARS-CoV Urbani / Binding of serum 6 to linear peptide (PEPSCAN-ELISA) / Binding of serum 1a to looped/cyclic peptides of protein N of SARS-CoV Urbani / Binding of serum 1b to looped/cyclic peptides of protein N of SARS-CoV Urbani / Binding of serum 2 to looped/cyclic peptides of protein N of SARS-CoV Urbani / Binding of serum 6 to looped/cyclic peptides of protein N of SARS-CoV Urbani / Binding of serum 37 to looped/cyclic peptides of protein N of SARS-CoV Urbani / Binding of serum 62 to looped/cyclic peptides of protein N of SARS-CoV Urbani / Binding of serum London to looped/cyclic peptides of protein N of SARS-CoV Urbani / Binding of serum SARS-green to looped/cyclic peptides of protein N of SARS-CoV Urbani: unit not given here"}, "[3]": {"tested_on": "control sera (pooled serum of ten healthy LUMC hospital workers; commercial negative donor pooled serum from the Dutch bloodbank)", "format": "binding, human", "parameters": "Binding of Control serum LUMC to linear peptides / Binding of Control serum Blood-bank to linear peptides / Binding of Control serum LUMC to looped peptides / Binding of Control Serum Blood-Bank to Looped peptides / Binding of Control serum LUMC to linear peptides of the protein M of SARS-CoV Urbani / Binding of Control serum Blood-bank to linear peptides of the protein M of SARS-CoV Urbani / Binding of Control serum LUMC to looped peptides of the protein M of SARS-CoV Urbani / Binding of Control Serum Blood-Bank to Looped peptides of the protein M of SARS-CoV Urbani: unit not given here"}}}
{"sequence": "GALIARCWYLHEGHQ", "values": [{"measurement": "Rabbit serum linear peptides", "setting": "[1]", "value": 0.6}, {"measurement": "Rabbit serum looped peptides", "setting": "[1]", "value": 0.0}, {"measurement": "Binding of serum 1a to linear peptides of protein X5 of SARS-CoV Urbani", "setting": "[2]", "value": 0.7}, {"measurement": "Binding of serum 1a to looped/cyclic peptides of protein X5 of SARS-CoV Urbani", "setting": "[2]", "value": 0.4}, {"measurement": "Binding of serum 1b to linear peptides of protein X5 of SARS-CoV Urbani", "setting": "[2]", "value": 0.6}, {"measurement": "Binding of serum 1b to looped/cyclic peptides of protein X5 of SARS-CoV Urbani", "setting": "[2]", "value": 0.4}, {"measurement": "Binding of serum 2 to linear peptides of protein X5 of SARS-CoV Urbani", "setting": "[2]", "value": 0.6}, {"measurement": "Binding of serum 2 to looped/cyclic peptides of protein X5 of SARS-CoV Urbani", "setting": "[2]", "value": 0.7}, {"measurement": "Binding of serum 6 to linear peptides of protein X5 of SARS-CoV Urbani", "setting": "[2]", "value": 0.7}, {"measurement": "Binding of serum 6 to looped/cyclic peptides of protein X5 of SARS-CoV Urbani", "setting": "[2]", "value": 0.3}, {"measurement": "Binding of serum 37 to linear peptides of protein X5 of SARS-CoV Urbani", "setting": "[2]", "value": 0.7}, {"measurement": "Binding of serum 37 to looped/cyclic peptides of protein X5 of SARS-CoV Urbani", "setting": "[2]", "value": 0.4}, {"measurement": "Binding of serum 62 to linear peptides of protein X5 of SARS-CoV Urbani", "setting": "[2]", "value": 0.7}, {"measurement": "Binding of serum 62 to looped/cyclic peptides of protein X5 of SARS-CoV Urbani", "setting": "[2]", "value": 0.3}, {"measurement": "Binding of serum London to linear peptides of protein X5 of SARS-CoV Urbani", "setting": "[2]", "value": 0.6}, {"measurement": "Binding of serum London to looped/cyclic peptides of protein X5 of SARS-CoV Urbani", "setting": "[2]", "value": 0.1}, {"measurement": "Binding of serum SARS-green to linear peptides of protein X5 of SARS-CoV Urbani", "setting": "[2]", "value": 0.6}, {"measurement": "Binding of serum SARS-green to looped/cyclic peptides of protein X5 of SARS-CoV Urbani", "setting": "[2]", "value": 0.8}, {"measurement": "Binding of serum SARS-yellow to linear peptides of protein X5 of SARS-CoV Urbani", "setting": "[2]", "value": 0.1}, {"measurement": "Binding of serum SARS-yellow to looped/cyclic peptides of protein X5 of SARS-CoV Urbani", "setting": "[2]", "value": 0.3}, {"measurement": "Binding of Control Serum Blood-Bank to Looped peptides", "setting": "[3]", "value": 0.3}, {"measurement": "Binding of Control serum Blood-bank to linear peptides", "setting": "[3]", "value": 0.6}, {"measurement": "Binding of Control serum LUMC to linear peptides", "setting": "[3]", "value": 0.4}, {"measurement": "Binding of Control serum LUMC to looped peptides", "setting": "[3]", "value": 0.2}]}
{"sequence": "GKVLPFHRWHTMVQT", "values": [{"measurement": "Rabbit serum linear peptides", "setting": "[1]", "value": 0.0}, {"measurement": "Rabbit serum looped peptides", "setting": "[1]", "value": 0.3}, {"measurement": "Binding of serum 1a to linear peptides of protein X5 of SARS-CoV Urbani", "setting": "[2]", "value": 0.8}, {"measurement": "Binding of serum 1a to looped/cyclic peptides of protein X5 of SARS-CoV Urbani", "setting": "[2]", "value": 0.8}, {"measurement": "Binding of serum 1b to linear peptides of protein X5 of SARS-CoV Urbani", "setting": "[2]", "value": 0.0}, {"measurement": "Binding of serum 1b to looped/cyclic peptides of protein X5 of SARS-CoV Urbani", "setting": "[2]", "value": 0.5}, {"measurement": "Binding of serum 2 to linear peptides of protein X5 of SARS-CoV Urbani", "setting": "[2]", "value": 0.6}, {"measurement": "Binding of serum 2 to looped/cyclic peptides of protein X5 of SARS-CoV Urbani", "setting": "[2]", "value": 0.6}, {"measurement": "Binding of serum 6 to linear peptides of protein X5 of SARS-CoV Urbani", "setting": "[2]", "value": 0.3}, {"measurement": "Binding of serum 6 to looped/cyclic peptides of protein X5 of SARS-CoV Urbani", "setting": "[2]", "value": 0.4}, {"measurement": "Binding of serum 37 to linear peptides of protein X5 of SARS-CoV Urbani", "setting": "[2]", "value": 0.5}, {"measurement": "Binding of serum 37 to looped/cyclic peptides of protein X5 of SARS-CoV Urbani", "setting": "[2]", "value": 0.6}, {"measurement": "Binding of serum 62 to linear peptides of protein X5 of SARS-CoV Urbani", "setting": "[2]", "value": 0.8}, {"measurement": "Binding of serum 62 to looped/cyclic peptides of protein X5 of SARS-CoV Urbani", "setting": "[2]", "value": 0.5}, {"measurement": "Binding of serum London to linear peptides of protein X5 of SARS-CoV Urbani", "setting": "[2]", "value": 0.8}, {"measurement": "Binding of serum London to looped/cyclic peptides of protein X5 of SARS-CoV Urbani", "setting": "[2]", "value": 0.3}, {"measurement": "Binding of serum SARS-green to linear peptides of protein X5 of SARS-CoV Urbani", "setting": "[2]", "value": 0.3}, {"measurement": "Binding of serum SARS-green to looped/cyclic peptides of protein X5 of SARS-CoV Urbani", "setting": "[2]", "value": 0.5}, {"measurement": "Binding of serum SARS-yellow to linear peptides of protein X5 of SARS-CoV Urbani", "setting": "[2]", "value": 0.1}, {"measurement": "Binding of serum SARS-yellow to looped/cyclic peptides of protein X5 of SARS-CoV Urbani", "setting": "[2]", "value": 0.4}, {"measurement": "Binding of Control Serum Blood-Bank to Looped peptides", "setting": "[3]", "value": 0.5}, {"measurement": "Binding of Control serum Blood-bank to linear peptides", "setting": "[3]", "value": 0.6}, {"measurement": "Binding of Control serum LUMC to linear peptides", "setting": "[3]", "value": 0.3}, {"measurement": "Binding of Control serum LUMC to looped peptides", "setting": "[3]", "value": 0.5}]}
{"sequence": "GMEAQFLYLYALIYF", "values": [{"measurement": "Binding of a rabbit serum to linear peptides", "setting": "[1]", "value": 0.1}, {"measurement": "Binding of a rabbit serum to looped peptides", "setting": "[1]", "value": 0.6}, {"measurement": "Binding of serum 1a to linear peptides of protein X1 of SARS-CoV Urbani", "setting": "[2]", "value": 0.8}, {"measurement": "Binding of serum 1a to looped/cyclic peptide (PEPSCAN-ELISA)", "setting": "[2]", "value": 0.6}, {"measurement": "Binding of serum 1b to linear peptides of protein X1 of SARS-CoV Urbani", "setting": "[2]", "value": 0.6}, {"measurement": "Binding of serum 1b to looped/cyclic peptide (PEPSCAN-ELISA)", "setting": "[2]", "value": 0.4}, {"measurement": "Binding of serum 2 to linear peptides of protein X1 of SARS-CoV Urbani", "setting": "[2]", "value": 0.6}, {"measurement": "Binding of serum 2 to looped/cyclic peptide (PEPSCAN-ELISA)", "setting": "[2]", "value": 0.5}, {"measurement": "Binding of serum 6 to linear peptides of protein X1 of SARS-CoV Urbani", "setting": "[2]", "value": 0.5}, {"measurement": "Binding of serum 6 to looped/cyclic peptide (PEPSCAN-ELISA)", "setting": "[2]", "value": 0.3}, {"measurement": "Binding of serum 37 to linear peptides of protein X1 of SARS-CoV Urbani", "setting": "[2]", "value": 0.5}, {"measurement": "Binding of serum 37 to looped/cyclic peptide (PEPSCAN-ELISA)", "setting": "[2]", "value": 0.4}, {"measurement": "Binding of serum 62 to linear peptides of protein X1 of SARS-CoV Urbani", "setting": "[2]", "value": 0.4}, {"measurement": "Binding of serum 62 to looped/cyclic peptide (PEPSCAN-ELISA)", "setting": "[2]", "value": 0.5}, {"measurement": "Binding of serum London to linear peptides of protein X1 of SARS-CoV Urbani", "setting": "[2]", "value": 0.2}, {"measurement": "Binding of serum London to looped/cyclic peptide (PEPSCAN-ELISA)", "setting": "[2]", "value": 0.2}, {"measurement": "Binding of serum SARS-green to linear peptides of protein X1 of SARS-CoV Urbani", "setting": "[2]", "value": 0.1}, {"measurement": "Binding of serum SARS-green to looped/cyclic peptide (PEPSCAN-ELISA)", "setting": "[2]", "value": 0.3}, {"measurement": "Binding of serum SARS-yellow to linear peptides of protein X1 of SARS-CoV Urbani", "setting": "[2]", "value": 0.3}, {"measurement": "Binding of serum SARS-yellow to looped/cyclic peptide (PEPSCAN-ELISA)", "setting": "[2]", "value": 0.4}, {"measurement": "Binding of Control Serum Blood-Bank to Looped peptides", "setting": "[3]", "value": 0.5}, {"measurement": "Binding of Control serum Blood-bank to linear peptides", "setting": "[3]", "value": 0.4}, {"measurement": "Binding of Control serum LUMC to linear peptides", "setting": "[3]", "value": 0.6}, {"measurement": "Binding of Control serum LUMC to looped peptides", "setting": "[3]", "value": 0.8}]}
